Measured values reported in ChEMBL document CHEMBL1127573, “Anticancer specificity of some ellipticinium salts against human brain tumors in vitro” (1994).

Tests used:
Assay type in all cases: functional
[1] = species on record: Homo sapiens; test: Concentration yielding an amount of cellular protein at the end of the incubation that is the same as at the beginning of the incubation in full panel
[2] = species on record: Homo sapiens; test: TGI correlation coefficient value of the compound
[3] = species on record: Homo sapiens; test: Concentration yielding an amount of cellular protein at the end of the incubation that is the same as at the beginning of the incubation in brain tumor sub panel
[4] = Selectivity rating against brain tumor cell line panel; i moderatelyselective (*) if 3< (A/B)< 6 and TGI-Corr > 0.8
[5] = Selectivity rating for brain tumor cell line panel; i selective (**) if (A/B)> 6 and TGI-Corr > 0.8
[6] = Selective rating against brain tumor cell line panel; i selective (**) if (A/B)> 6 and TGI-Corr > 0.8

Row | SMILES | TGI concentration [1] | TGI correlation coefficient [2] | TGI concentration [3] | Selectivity rating [4] | Selectivity rating [5] | Selectivity rating [6]
1 | Cc1c2ccncc2c(C)c2c1[nH]c1ccccc12 [ELLIPTECINE] | 3 µM | <0.5 | 2.9 µM |  |  | 
2 | C=CCCCCn1c2ccccc2c2c(C)c3c[n+](C)ccc3c(C)c21.CC(=O)[O-] | 2.9 µM | 0.6 | 1.8 µM |  |  | 
3 | CC(=O)[O-].Cc1ccc2[nH]c3c(C)c4cc[n+](C)cc4c(C)c3c2c1 | 21 µM | 0.83 | 6.9 µM | Moderately selective |  | 
4 | CS(=O)(=O)[O-].Cc1c2cc[n+](C)cc2c(C)c2c1[nH]c1ccccc12 | 11 µM | 0.86 | 1 µM |  |  | 
5 | CC(=O)[O-].Cc1c2cc[n+](C)c(C)c2cc2c1[nH]c1ccccc12 | 32 µM | 0.8 | 8.9 µM |  | Moderately selective | 
6 | COc1ccc2[nH]c3c(C)c4cc[n+](C)cc4c(C)c3c2c1.[I-] | 11 µM | 1 | 1.1 µM |  |  | 
7 | CCN(CC)CC[n+]1ccc2c(C)c3[nH]c4ccc(O)cc4c3c(C)c2c1.[Cl-] [DATELLIPTIUM CHLORIDE] | 34 µM | 0.78 | 16 µM |  |  | 
8 | Cc1c2ccncc2c(C)c2c1[nH]c1ccc(O)cc12 | 2.8 µM | <0.5 | 3.4 µM |  |  | 
9 | CC(=O)[O-].COc1ccc2[nH]c3c(C)c4cc[n+](C)cc4c(C)c3c2c1 | 18 µM | 0.94 | 2.1 µM |  |  | 
10 | Cc1c2cc[n+]([O-])cc2c(C)c2c1[nH]c1ccccc12 | 62 µM | <0.5 | 41 µM |  |  | 
11 | COc1ccc2[nH]c3c(C)c4ccncc4c(C)c3c2c1 | 3.2 µM | <0.5 | 3.6 µM |  |  | 
12 | Cc1c2cc[n+](Cc3ccc(I)cc3)cc2c(C)c2c1[nH]c1ccccc12.[Cl-] | 44 µM | <0.5 | 54 µM |  |  | 
13 | Cc1c2ccncc2c(C)c2c1[nH]c1ccc(Cl)cc12 | 17 µM | <0.5 | 16 µM |  |  | 
14 | CC(=O)[O-].Cc1c2cc[n+](C)cc2c(C)c2c1[nH]c1ccc(O)cc12 [ELLIPTINIUM ACETATE] | 78 µM | <0.5 | 58 µM |  |  | 
15 | CC(=O)[O-].Cc1c2cc[n+](C)cc2c(C)c2c1[nH]c1ccc(Cl)cc12 | 22 µM | 0.85 | 4.7 µM | Moderately selective |  | 
16 | CC(=O)[O-].Cc1c2cc[n+](C)cc2c(C)c2c1oc1ccccc12 | 20 µM | 0.89 | 5.5 µM | Moderately selective |  | 
17 | Cc1nccc2c(C)c3[nH]c4ccccc4c3cc12 | 3.6 µM | <0.5 | 3.7 µM |  |  | 
18 | Cc1c2cc[n+](CCN3CCCCC3)cc2c(C)c2c1[nH]c1ccc(O)cc12 | 34 µM | 0.71 | 20 µM |  |  | 
19 | CCN(CC)CC[n+]1ccc2c(C)c3[nH]c4ccccc4c3c(C)c2c1.[Br-] | 4.2 µM | 0.66 | 2.7 µM |  |  | 
20 | Cc1c2cc[n+](C)cc2c(C)c2c1[nH]c1ccccc12.[I-] | 12 µM | 0.96 | 1.4 µM |  |  | 
21 | COc1ccc2[nH]c3c(C)c4cc[n+](C)cc4c(C)c3c2c1 |  |  |  |  |  | Selective
22 | Cc1ccc2[nH]c3c(C)c4ccncc4c(C)c3c2c1 | 2.7 µM | <0.5 | 3.1 µM |  |  | 
23 | Cc1c2cc[n+](C)cc2c(C)c2c1[nH]c1ccccc12 |  |  |  |  |  | Selective
